From patent US20200375999A1, “PHARMACEUTICAL COMBINATIONS OF EGFR INHIBITORS AND METHODS OF USE THEREOF” (DANA-FARBER CANCER INSTITUTE, INC., priority 2018, published 2020) come the findings set out here.

Assay [1] concerns EGFR L858R/T790M/C797S Ba/F3 cell line. The assay is described as follows: Ba/F3 cell proliferation (MTS assay), EGFR L858R/T790M/C797S. The following applies: for Activity (% cetuximab); inhibition of proliferation: compound at 1 μM in the presence of 1 μg/mL cetuximab, EGFR L858R/T790M/C797S; for Activity (% DMSO control); inhibition of proliferation: compound at 1 μM, EGFR L858R/T790M/C797S Ba/F3. Format: cell-based, murine. The protocol: (§1) The EGFR mutant L858R, Del E746_A750, L858R/T790M, DelE746_A750/T790M, L858R/T790M/C797S and Del/T790M/C797S Ba/F3 cells were previously described (Zhou et al., Nature 462, (2009), 1070-1074). All cell lines were maintained in RPM 1640 (Cellgro; Mediatech Inc., Herndon, Calif.) supplemented with 10% FBS 100 units/mL penicillin, 100 units/mL streptomycin, and 2 mM glutamine. L858R cells were maintained in ACL-4 media (Invitrogen, Carlsbad, Calif.) supplemented with 5% FBS, 100 units/mL penicillin, 100 units/mL streptomycin, and 2 mM glutamine. The EGFR 1941R mutation was introduced via site directed mutagenesis using the Quick Change Site-Directed Mutagenesis kit (Stratagene: La Jolla, Calif.) according to the manufacturer's instructions. All constructs were confirmed by DNA sequencing. The constructs were shuttled into the retroviral vector JP1540 using the BD Creator™ System (BD Biosciences). Ba/F3 cells were infected with retrovirus and according to standard protocols, as described previously (Zhou 2009). Stable clones were obtained by selection in puromycin (2 μg/ml).
Growth and inhibition of growth was assessed by MTS assay and was performed according to previously established methods (Zhou 2009). The MTS assay is a colorimetric method for determining the number of viable cells that is based on the bioreduction of MTS by cells to a formazan product that is soluble in cell culture medium and can be detected spectrophotometrically. Ba/F3 cells of different EGFR genotypes were exposed to treatment and the number of cells used per experiment determined empirically and has been previously established (Zhou 2009). All experimental points were set up in six wells and all experiments were repeated at least three times. […] The curves were fitted using anon-linear regression model with a sigmoidal dose response.

In assay [2] the target is T1, recombinant EGFR T790M/L858R kinase (Homo sapiens, UniProt P00533, L858R/T790M).
T1 construct: Constructs spanning residues 696-1022 of the human EGFR; GST (cleaved yes); made in house; host or cells: Sf9 insect cells
In words: HTRF-based EGFR biochemical assay. The protocol: EGFR kinase proteins were purified by glutathione-affinity chromatography followed by size-exclusion chromatography after cleavage with TEV or thrombin to remove the GST fusion partner following established procedures. (Yun 2008; Yun 2007).
EGFR biochemical assays were carried out using a homogeneous time-resolved fluorescence (HTRF) assay as described previously. The reaction mixtures contained 1 μM biotin-Lck-peptide substrate, wild type or mutant EGFR enzyme in reaction buffer (50 mM HEPES pH 7.1, 10 mM MgCl2, 0.01% BSA. 1 mM TCEP and 0.1 mM Na3VO4) at a final volume of 10 μL. […] All reactions were carried out at room temperature in white ProxiPlate™ 384-well Plus plates (PerkinElmer) and were quenched with 5 μL of 0.2 M EDTA at 60 min. Five μL per well of the detection reagent containing 2.5 ng PT66K (Cis-bio) and 0.05 μg SAXL (Prozyme) were added, and the plates were then incubated at room temperature for 1 hour and read with an EnVision plate reader.
In general terms: Time-resolved FRET reads energy transfer from a long-lived donor to a nearby acceptor.

Assay [3] has as its target T2, EGFR T790M/L858R Ba/F3 cell line (Homo sapiens, UniProt P00533, T790M/L858R, cells depend on it).
T2 construct: "The constructs were shuttled into the retroviral vector JP1540 using the BD Creator™ System (BD Biosciences)
In words: Ba/F3 cell proliferation (MTS assay), EGFR T790M/L858R. The assay is classed as cell-based, murine. The following applies: for Activity (% cetuximab); inhibition of proliferation: compound at 1 μM in the presence of 1 μg/mL cetuximab; for Activity (% cetuximab); inhibition of proliferation / Activity (% DMSO control); inhibition of proliferation: EGFR T790M/L858R Ba/F3; for Activity (% DMSO control); inhibition of proliferation: compound at 1 μM. The protocol: as §1, with “All” for “The EGFR mutant L858R, Del E746_A750, L858R/T790M, DelE746_A750/T790M, L858R/T790M/C797S and Del/T790M/C797S Ba/F3 cells were previously described (Zhou et al., Nature 462, (2009), 1070-1074). All”, “L858R cells were maintained in ACL-4 media (Invitrogen, Carlsbad, Calif.) supplemented with 5% FBS, 100 units/mL penicillin, 100 units/mL streptomycin, and 2 mM glutamine.” left out
Growth and inhibition of growth was assessed by MTS assay and was performed according to previously established methods (Zhou 2009). The MTS assay is a colorimetric method for determining the number of viable cells that is based on the bioreduction of MTS by cells to a formazan product that is soluble in cell culture medium and can be detected spectrophotometrically. […] All experimental points were set up in six wells and all experiments were repeated at least three times. […] The curves were fitted using anon-linear regression model with a sigmoidal dose response.

The mark [4] stands for this setting: absence of cetuximab, read-out: Ba/F3 cellular activity (EC50) T790M/L858R.
[5] abbreviates: read-out: Ba/F3 cellular activity (EC50) T790M/L858R + Cetuximab (1 μg/mL), presence of 1 μg/mL cetuximab.

Read-outs that look alike come from different tables or passages of the source.

T2 sequence (P00533 whole entry T790M/L858R): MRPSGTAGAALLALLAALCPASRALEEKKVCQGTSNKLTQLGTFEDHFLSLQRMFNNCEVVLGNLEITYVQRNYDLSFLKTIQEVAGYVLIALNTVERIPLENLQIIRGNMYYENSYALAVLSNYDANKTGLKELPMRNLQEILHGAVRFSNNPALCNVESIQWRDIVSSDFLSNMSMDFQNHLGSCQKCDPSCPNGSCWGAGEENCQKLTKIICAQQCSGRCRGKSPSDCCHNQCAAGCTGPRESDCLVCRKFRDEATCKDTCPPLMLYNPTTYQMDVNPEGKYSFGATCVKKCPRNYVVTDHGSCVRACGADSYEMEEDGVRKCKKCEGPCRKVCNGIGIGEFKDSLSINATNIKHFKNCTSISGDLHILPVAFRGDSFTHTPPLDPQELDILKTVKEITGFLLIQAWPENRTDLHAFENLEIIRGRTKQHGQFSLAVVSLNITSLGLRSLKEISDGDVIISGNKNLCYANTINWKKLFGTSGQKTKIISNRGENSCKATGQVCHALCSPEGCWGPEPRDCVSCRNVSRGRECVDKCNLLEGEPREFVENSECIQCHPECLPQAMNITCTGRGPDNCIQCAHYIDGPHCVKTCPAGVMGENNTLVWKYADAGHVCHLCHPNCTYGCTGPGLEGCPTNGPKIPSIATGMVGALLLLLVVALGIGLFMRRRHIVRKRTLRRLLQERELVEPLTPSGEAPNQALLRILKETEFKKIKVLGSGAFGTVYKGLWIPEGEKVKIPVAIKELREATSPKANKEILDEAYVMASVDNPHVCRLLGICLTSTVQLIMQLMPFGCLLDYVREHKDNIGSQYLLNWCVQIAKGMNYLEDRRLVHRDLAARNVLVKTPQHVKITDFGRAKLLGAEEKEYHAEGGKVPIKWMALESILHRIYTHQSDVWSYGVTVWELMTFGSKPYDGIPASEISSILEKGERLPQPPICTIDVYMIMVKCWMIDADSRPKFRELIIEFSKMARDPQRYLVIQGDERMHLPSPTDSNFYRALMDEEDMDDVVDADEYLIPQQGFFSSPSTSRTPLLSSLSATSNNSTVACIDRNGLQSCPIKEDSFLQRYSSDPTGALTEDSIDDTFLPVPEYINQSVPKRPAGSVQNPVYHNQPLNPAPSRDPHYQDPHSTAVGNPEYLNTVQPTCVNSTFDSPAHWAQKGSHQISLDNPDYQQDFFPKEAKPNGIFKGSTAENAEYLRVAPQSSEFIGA
T1 sequence (P00533 696-1022 T790M/L858R): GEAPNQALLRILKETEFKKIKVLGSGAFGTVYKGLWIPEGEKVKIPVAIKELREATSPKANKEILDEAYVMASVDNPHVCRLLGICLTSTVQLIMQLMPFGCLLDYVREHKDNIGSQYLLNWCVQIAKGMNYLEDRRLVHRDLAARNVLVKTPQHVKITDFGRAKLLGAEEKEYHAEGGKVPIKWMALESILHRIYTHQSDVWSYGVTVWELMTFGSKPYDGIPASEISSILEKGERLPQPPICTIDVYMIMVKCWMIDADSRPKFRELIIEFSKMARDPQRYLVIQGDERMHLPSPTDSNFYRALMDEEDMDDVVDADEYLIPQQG

What is called IC50 is the concentration that gives 50% inhibition. With `O=C1c2cc(-c3ccc(N4CCNCC4)cc3)ccc2Nc2ccc(F)cc2N1Cc1nccs1` [Compound I-7], the “Activity (% cetuximab); inhibition of proliferation” value (“Activity (% cetuximab); inhibition” for short) in assay [1] is recorded as “D (75 ≤ D)”; in assay [3] it was “C (50 ≤ C < 75)”. Further, the “Activity (% DMSO control); inhibition of proliferation” value (“Activity (% DMSO control); inhibition” for short) in assay [1] and in assay [3] was “D (75 ≤ D)” throughout. The IC50 in assay [2] is less than 250 nM. In addition, the EC50 in assay [3] (setting [4]) and in assay [3] (setting [5]) was not below 750 nM in each case.
Turning to `CCC(=O)Nc1ccc2c(c1)N(Cc1ccccc1)C(=O)c1cc(-c3ccc4[nH]ccc4c3)ccc1N2` [Compound I-16], the IC50 in assay [2] is not below 750 nM. In addition, the EC50 in assay [3] (setting [4]) and in assay [3] (setting [5]) was 250 to 500 nM each time.
Take `CN1CCN(c2ccc(Oc3ccc4c(c3)C(=O)N(Cc3ccccc3)c3cc(F)ccc3N4)cc2)CC1` [Compound I-20, 10-benzyl-8-fluoro-2-(4-(4-methylpiperazin-1-yl)phenoxy)-5,10-dihydro-11H-dibenzo[b,e][1,4]diazepin-11-one]: in assay [2], the half-inhibitory concentration (IC50) is less than 250 nM. The EC50 was not below 750 nM in assay [3] (setting [4]) and 250 to 500 nM in assay [3] (setting [5]).
For `O=C1c2cc(-c3ccc(N4CCNCC4)cc3)ccc2Nc2ccc(F)cc2N1Cc1ccccc1` [Compound I-1], the “Activity (% cetuximab); inhibition” value in assay [1] and in assay [3] was “B (25 ≤ B < 50)” in each case. Moreover, the “Activity (% DMSO control); inhibition” value in assay [1] and in assay [3] was “D (75 ≤ D)” each time. Also, the EC50 in assay [3] (setting [4]) was not below 750 nM; in assay [3] (setting [5]), 500 to 750 nM.
Turning to `CN1CCC(n2cc(-c3ccc4c(c3)C(=O)N(Cc3cccc5cc[nH]c35)c3cc(F)ccc3N4)cn2)CC1` [Compound I-25], the 50% inhibitory concentration (IC50) in assay [2] was less than 250 nM. In addition, the EC50 in assay [3] (setting [4]) and in assay [3] (setting [5]) was not below 750 nM in each case.
In the case of `CN1CCC(n2cc(-c3ccc4c(c3)C(=O)N(Cc3cccc(Cl)c3)c3cc(F)ccc3N4)cn2)CC1` [Compound I-23], the IC50 in assay [2] was less than 250 nM. Also, the EC50 in assay [3] (setting [4]) and in assay [3] (setting [5]) was not below 750 nM in each case.
For the compound `O=C1c2cc(-c3ccc(N4CCNCC4)cc3)ccc2Nc2ccc(F)cc2N1Cc1cccnc1` [Compound I-6], the “Activity (% cetuximab); inhibition” value in assay [1] and in assay [3] was “D (75 ≤ D)” throughout. The “Activity (% DMSO control); inhibition” value in assay [1] and in assay [3] was “D (75 ≤ D)” each time. Also, in assay [2], the half-maximal inhibitory concentration (IC50) is not below 750 nM. Further, the EC50 in assay [3] (setting [4]) and in assay [3] (setting [5]) was not below 750 nM each time.
In the case of `O=C1c2cc(-c3ccc4[nH]ccc4c3)ccc2Nc2ccc(F)cc2N1Cc1cccnc1` [Compound I-9], the “Activity (% cetuximab); inhibition” value in assay [1] and in assay [3] was “D (75 ≤ D)” throughout. Moreover, the “Activity (% DMSO control); inhibition” value in assay [1] and in assay [3] was “D (75 ≤ D)” in each case. The concentration for half-maximal inhibition (IC50) in assay [2] was not below 750 nM. Also, the EC50 in assay [3] (setting [4]) and in assay [3] (setting [5]) was not below 750 nM in each case.
With `O=C1c2cc(-c3ccc(N4CCNCC4)cc3)ccc2Nc2ccccc2N1Cc1ccccc1` [Compound I-11], the “Activity (% cetuximab); inhibition” value in assay [1] is “C (50 ≤ C < 75)”; in assay [3], “B (25 ≤ B < 50)”. Besides, the “Activity (% DMSO control); inhibition” value in assay [1] and in assay [3] was “D (75 ≤ D)” each time. In addition, the 50% inhibitory concentration (IC50) in assay [2] was less than 250 nM. The EC50 in assay [3] (setting [4]) was not below 750 nM; in assay [3] (setting [5]), 250 to 500 nM.
For the compound `O=C1c2cc(-c3ccc4[nH]ccc4c3)ccc2Nc2ccc(F)cc2N1Cc1nccs1` [Compound I-10], the “Activity (% cetuximab); inhibition” value is recorded as “C (50 ≤ C < 75)” in assay [1] and “D (75 ≤ D)” in assay [3]. Also, the “Activity (% DMSO control); inhibition” value in assay [1] and in assay [3] was “D (75 ≤ D)” throughout. The half-maximal inhibitory concentration (IC50) in assay [2] was not below 750 nM. The EC50 in assay [3] (setting [4]) and in assay [3] (setting [5]) was not below 750 nM each time.
With `O=C1c2cc(-c3ccc(N4CCNCC4)cc3)ccc2Nc2ccc(F)cc2N1Cc1cccc2cc[nH]c12` [Compound I-18], the half-inhibitory concentration (IC50) in assay [2] is less than 250 nM. The results for the EC50 in assay [3] (setting [4]) and in assay [3] (setting [5]) were not below 750 nM and less than 250 nM, respectively.
Consider `CC(=O)Nc1ccc2c(c1)N(Cc1ccccc1)C(=O)c1cc(-c3ccc4[nH]ccc4c3)ccc1N2` [Compound I-15], for which the half-maximal inhibitory concentration (IC50) in assay [2] is not below 750 nM. Further, the EC50 in assay [3] (setting [4]) and in assay [3] (setting [5]) was not below 750 nM throughout.
On to `CN1CCC(c2ccc(-c3ccc4c(c3)C(=O)N(Cc3ccccc3)c3cc(F)ccc3N4)cc2)CC1` [Compound I-17], for which the IC50 in assay [2] was less than 250 nM.
For the compound `O=C1c2cc(-c3ccc4[nH]ccc4c3)ccc2Nc2ccc(F)cc2N1Cc1ccccc1` [Compound I-2], the entries for the “Activity (% cetuximab); inhibition” value in assay [1] and in assay [3] were “A (0 ≤ A < 25)” and “B (25 ≤ B < 50)”, respectively. The “Activity (% DMSO control); inhibition” value in assay [1] and in assay [3] was “D (75 ≤ D)” throughout. For the same compound, in assay [2], the IC50 was less than 250 nM. In addition, the EC50 in assay [3] (setting [4]) is not below 750 nM; in assay [3] (setting [5]), less than 250 nM.
Take `O=C1c2cc(-c3ccc(N4CCNCC4)cc3)ccc2Nc2ncc(F)cc2N1Cc1ccccc1` [Compound I-12]: the IC50 in assay [2] was not below 750 nM. Further, the EC50 in assay [3] (setting [4]) and in assay [3] (setting [5]) was not below 750 nM each time.
Turning to `O=C1c2cc(-c3ccc(N4CCNCC4)cc3)ccc2Nc2ccc(F)cc2N1Cc1ccc2cc[nH]c2c1` [Compound I-19], in assay [2], the IC50 is not below 750 nM. Moreover, the EC50 in assay [3] (setting [4]) and in assay [3] (setting [5]) was not below 750 nM in each case.
Regarding `CN1CCC(n2cc(-c3ccc4c(c3)C(=O)N(Cc3cc(F)cc(F)c3)c3cc(F)ccc3N4)cn2)CC1` [Compound I-24], in assay [2], the IC50 is less than 250 nM. Also, the EC50 in assay [3] (setting [4]) and in assay [3] (setting [5]) was not below 750 nM in each case.
In the case of `O=C1c2cc(Br)ccc2Nc2ccc(F)cc2N1Cc1ccccc1` [I-a], in assay [2], the IC50 is less than 250 nM. Further, the EC50 in assay [3] (setting [4]) is not below 750 nM; in assay [3] (setting [5]), 250 to 500 nM.
Consider `CN1CCC(n2cc(-c3ccc4c(c3)C(=O)N(Cc3cccc(F)c3)c3cc(F)ccc3N4)cn2)CC1` [Compound I-22], for which, in assay [2], the 50% inhibitory concentration (IC50) was less than 250 nM.
As to `Nc1ccc2c(c1)N(Cc1ccccc1)C(=O)c1cc(-c3ccc4[nH]ccc4c3)ccc1N2` [Compound I-14], in assay [2], the half-maximal inhibitory concentration (IC50) is not below 750 nM. Further, the EC50 in assay [3] (setting [4]) and in assay [3] (setting [5]) was not below 750 nM throughout.
For `O=C1c2cc(-c3ccc(N4CCNCC4)cc3)ccc2Nc2ccncc2N1Cc1ccccc1` [Compound I-13], in assay [2], the IC50 is not below 750 nM. Besides, the EC50 in assay [3] (setting [4]) and in assay [3] (setting [5]) was not below 750 nM throughout.
